According to PMC9861858, “Stereoselective Synthesis and Antiproliferative Activities of Tetrafunctional Diterpene Steviol Derivatives” (International Journal of Molecular Sciences, 2023):
In brackets after ≈: the same amount, converted by molar mass. Entries after “also recorded” stand apart in the source; their conditions may differ.

Columns and labels:
NIH/3T3 fibroblasts = assay: MTT assay on fibroblasts (selectivity); type: cell-based, murine; conditions: Mus musculus, 72 h, values <20% considered negligible, read-out: Growth inhibition (%) ± SEM, NIH/3T3; for inhibition at 10 µM: NIH3T3, 10 μM; for inhibition at 30 µM: NIH3T3, 30 μM
In short: (§1)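 Seeding: 5000 cells/well, overnight. Treatment: compounds added at 10 or 30 μM, 72 h under standard culture conditions. Detection: MTT for 4 h, then DMSO dissolution of crystals with shaking at 37 °C for 60 min and reading at 545 nm. Cisplatin served as reference.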

A2780 cells = assay: MTT antiproliferative assay, A2780; type: cell-based, human; conditions: for inhibition at 10 µM / inhibition at 30 µM: Homo sapiens, 72 h, values <20% considered negligible, read-out: Growth inhibition (%) ± SEM, A2780; for inhibition at 10 µM: A2780, 10 μM; for inhibition at 30 µM: A2780, 30 μM
In short: as §1

MCF-7 cells = assay: MTT antiproliferative assay, MCF-7; type: cell-based, human; conditions: for inhibition at 10 µM / inhibition at 30 µM: Homo sapiens, 72 h, values <20% considered negligible, read-out: Growth inhibition (%) ± SEM, MCF-7; for inhibition at 10 µM: MCF7, 10 μM; for inhibition at 30 µM: MCF7, 30 μM; for Antiproliferative effect / selectivity on MCF-7, in words: 10 and 30 μM
In short: as §1

MDA-MB-231 cells = assay: MTT antiproliferative assay, MDA-MB-231; type: cell-based, human; conditions: for inhibition at 10 µM / inhibition at 30 µM: Homo sapiens, 72 h, values <20% considered negligible, read-out: Growth inhibition (%) ± SEM, MDA-MB-231; for inhibition at 10 µM: MDA-MB-231, 10 μM; for inhibition at 30 µM: MDA-MB-231, 30 μM; for Antiproliferative effect / selectivity on MDA-MB-231, in words: 10 and 30 μM
In short: as §1

[1] = Kinetic aqueous solubility; type: physicochemical; conditions: for solubility kinetic at 2 h: phosphate buffered saline with 5% DMSO, aqueous with cosolvent or surfactant or cyclodextrin, kinetic from dmso stock, after 2 h, at 37 °C in PBS, pH 7.4, 5% DMSO, target concentration 500 μM, mean ± S.E.M, n = 3; for Kinetic aqueous solubility, category in words: PBS pH 7.4, 37 °C, 2 h
In short: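 Kinetic solubility: filtrates quantified by HPLC-DAD-MS against 5–500 μM calibration, target concentration 500 μM. PAMPA-GI: pH 6.5 phosphate donor, pH 7.4 PBS/5% DMSO acceptor, phosphatidylcholine/cholesterol 2:1 in dodecane membrane, 4 h at 37 °C; Pe and membrane retention calculated from HPLC-DAD-MS concentrations.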

HeLa cells = assay: MTT antiproliferative assay, HeLa; type: cell-based, human; conditions: for inhibition at 10 µM / inhibition at 30 µM: Homo sapiens, HeLa, 72 h, values <20% considered negligible, read-out: Growth inhibition (%) ± SEM, HeLa; for Antiproliferative effect on HeLa, in words: 10 and 30 μM
In short: as §1

| melting point [°C] | solubility kinetic at 2 h [1] [µM] | Kinetic aqueous solubility, category in words [1] | Structure (SMILES) | inhibition at 10 µM (NIH/3T3 fibroblasts) [%] | inhibition at 30 µM (NIH/3T3 fibroblasts) [%] | inhibition at 10 µM (A2780 cells) [%] | inhibition at 30 µM (A2780 cells) [%] | inhibition at 10 µM (MCF-7 cells) [%] | inhibition at 30 µM (MCF-7 cells) [%] | inhibition at 10 µM (MDA-MB-231 cells) [%] | inhibition at 30 µM (MDA-MB-231 cells) [%] | inhibition at 10 µM (HeLa cells) [%] | inhibition at 30 µM (HeLa cells) [%] | Antiproliferative effect / selectivity on MCF-7, in words (MCF-7 cells) | Antiproliferative effect / selectivity on MDA-MB-231, in words (MDA-MB-231 cells) | Antiproliferative effect on HeLa, in words (HeLa cells) | Antiproliferative effect on A2780, in words (A2780 cells; 10 and 30 μM) |
| --- | --- | --- | --- | --- | --- | --- | --- | --- | --- | --- | --- | --- | --- | --- | --- | --- | --- |
| 119 to 122 | 291 ± 35.5 (≈ 137 µg/mL) |  | COC(=O)[C@]1(C)CCC[C@@]2(C)C3CC[C@]4(O)C[C@@]3(CCC21)[C@@H](O)[C@]4(O)CNCc1ccccc1 (stereo partly drawn) [Compound 5, (4R,6aR,7R,8R,9S,11bS)-Methyl 8-((Benzylamino)methyl)-7,8,9-trihydroxy-4,11b-dimethyltetradecahydro-6a,9-methanocyclohepta[a]naphthalene-4-carboxylate] | < 20 | 101.1 ± 0.43 | 30.4 ± 2.48 | 97.15 ± 0.21 | 59.6 ± 2.73 | 96.42 ± 0.27 | 34.6 ± 2.98 | 95.8 ± 0.63 | < 20 | 95.77 ± 0.26 |  |  |  |  |
| 195 to 197 | 42.1 ± 10.8 (≈ 20.6 µg/mL) | moderate | COC(=O)[C@]1(C)CCC[C@@]2(C)C3CC[C@]4(O)C[C@@]3(CCC21)[C@@H](O)[C@]4(O)CNCc1ccc(F)cc1 (stereo partly drawn) [Compound 9, (4R,6aR,7R,8R,9S,11bS)-Methyl 8-(((4-Fluorobenzyl)amino)methyl)-7,8,9-trihydroxy-4,11b-dimethyltetradecahydro-6a,9-methanocyclohepta[a]naphthalene-4-carboxylate] | 25.9 ± 0.94 | 92.4 ± 1.01 | 45.6 ± 3.13 | 96.97 ± 0.29 | 96.4 ± 0.47 | 96.19 ± 0.65 | 83 ± 1.71 | 93.63 ± 0.36 | 42.5 ± 1.42 | 96.8 ± 0.74 | strong and selective antiproliferative effect; also recorded: performed best | decent activity; also recorded: smaller but also selective antiproliferative effect |  |  |
| 162 to 166 | 114 ± 16 (≈ 55.5 µg/mL) |  | COC(=O)[C@]1(C)CCC[C@@]2(C)C3CC[C@]4(O)C[C@@]3(CCC21)[C@@H](O)[C@]4(O)CN(C)Cc1ccccc1 (stereo partly drawn) [Compound 6, (4R,6aR,7R,8R,9S,11bS)-Methyl 8-((Benzyl(methyl)amino)methyl)-7,8,9-trihydroxy-4,11b-dimethyltetradecahydro-6a,9-methanocyclohepta[a]naphthalene-4-carboxylate] | < 20 | 89.3 ± 2.62 | 25.7 ± 2.7 | 63.7 ± 1.98 | < 20 | 51.7 ± 2.54 | < 20 | 82.56 ± 0.69 | < 20 | < 20 |  | slight selectivity |  |  |

More lines, now with the values behind:

| Structure (SMILES) | melting point [°C] | solubility kinetic at 2 h [1] [µM] | Kinetic aqueous solubility, category in words [1] | inhibition at 10 µM (NIH/3T3 fibroblasts) [%] | inhibition at 30 µM (NIH/3T3 fibroblasts) [%] | inhibition at 10 µM (A2780 cells) [%] | inhibition at 30 µM (A2780 cells) [%] | inhibition at 10 µM (MCF-7 cells) [%] | inhibition at 30 µM (MCF-7 cells) [%] | inhibition at 10 µM (MDA-MB-231 cells) [%] | inhibition at 30 µM (MDA-MB-231 cells) [%] | inhibition at 10 µM (HeLa cells) [%] | inhibition at 30 µM (HeLa cells) [%] | Antiproliferative effect / selectivity on MCF-7, in words (MCF-7 cells) | Antiproliferative effect / selectivity on MDA-MB-231, in words (MDA-MB-231 cells) | Antiproliferative effect on HeLa, in words (HeLa cells) | Antiproliferative effect on A2780, in words (A2780 cells; 10 and 30 μM) |
| --- | --- | --- | --- | --- | --- | --- | --- | --- | --- | --- | --- | --- | --- | --- | --- | --- | --- |
| CC[C@H](NC[C@@]1(O)[C@H](O)[C@@]23CCC4[C@@](C)(CCC[C@@]4(C)C(=O)OC)C2CC[C@]1(O)C3)c1ccccc1 (stereo partly drawn) [Compound 16, (4R,6aR,7R,8R,9S,11bS)-Methyl 7,8,9-Trihydroxy-4,11b-dimethyl-8-((((S)-1-phenylpropyl)amino)methyl)tetradecahydro-6a,9-methanocyclohepta[a]naphthalene-4-carboxylate] | 140 to 143 | 89.9 ± 8.5 (≈ 44.9 µg/mL) | moderate | < 20 | 95.12 ± 0.41 | 48.3 ± 2.17 | 96.99 ± 0.19 | 80.7 ± 2.37 | 97.1 ± 0.23 | 39.3 ± 1.99 | 96.65 ± 0.37 | 53.5 ± 1.99 | 98.33 ± 0.32 | higher selectivity; also recorded: performed best |  | moderate inhibition |  |
| CC[C@@H](NC[C@@]1(O)[C@H](O)[C@@]23CCC4[C@@](C)(CCC[C@@]4(C)C(=O)OC)C2CC[C@]1(O)C3)c1ccccc1 (stereo partly drawn) [Compound 15, (4R,6aR,7R,8R,9S,11bS)-Methyl 7,8,9-Trihydroxy-4,11b-dimethyl-8-((((R)-1-phenylpropyl)amino)methyl)tetradecahydro-6a,9-methanocyclohepta[a]naphthalene-4-carboxylate] | 138 to 141 | 145 ± 28.2 (≈ 72.5 µg/mL) |  | 21 ± 0.96 | 94.23 ± 0.31 | 50 ± 2.99 | 96.64 ± 0.24 | 91 ± 1.52 | 96.47 ± 0.26 | 68.3 ± 2.86 | 95.63 ± 0.45 | 63.6 ± 1.54 | 97.25 ± 0.5 | strong and selective antiproliferative effect; also recorded: performed best | decent activity; also recorded: smaller but also selective antiproliferative effect | modest inhibition | modest inhibition |
